According to patent publication US20080194585A1, “Fungicidal Pyrazine Derivatives” (priority 2005, published 2008):
Marks after values point to notes of the source that are not given here.

Columns and labels:
Plasmopara viticola = experiment: Test D: grape downy mildew, spray after inoculation of grape seedlings; type: in vivo; settings: 200 ppm
Description: Upon removal, disease ratings were made. […] A dash (-) indicates no test results.

Phytophthora infestans = experiment: whole plant or invertebrate; type: in vivo; settings: 200 ppm
Septoria tritici = experiment: Test J: wheat leaf blotch, preventive spray on wheat seedlings; type: in vivo
Description: A dash (-) indicates no test results.

fusarium graminearium = experiment: Test I: wheat head scab, preventive spray on wheat seedlings; settings: 200 ppm
Description: (the causal agent of wheat head scab) and incubated in a saturated atmosphere at 20° C. for 72 h, and then moved to a growth chamber at 22° C. for 5 days, after which disease ratings were made.

[1] = system: Puccinia recondita f. sp. tritici; experiment: Test K: wheat leaf rust, preventive spray on wheat seedlings
Botrytis cinerea = experiment: Test E: tomato botrytis, preventive spray on tomato seedlings
Septoria nodorum = experiment: Test H: wheat glum blotch, preventive spray on wheat seedlings
Description: (the causal agent of wheat glum blotch) and incubated in a saturated atmosphere at 20° C. for 48 h, and then moved to a growth chamber at 22° C. for 5 days, after which disease ratings were made.

[2] = system: Erysiphe graminis f. sp. tritici; experiment: Test L: wheat powdery mildew, preventive spray on wheat seedlings
Sclerotinia sclerotiorum = experiment: Test C: cucumber white mold, preventive spray on cucumber seedlings
Pythium aphanidermatum = experiment: Test A: bluegrass pythium blight, preventive spray on bluegrass seedlings; settings: 200 ppm
Rhizoctonia oryzae = experiment: Test G: turf brown patch, preventive spray on creeping bent grass seedlings
Description: (the causal agent of turf brown patch) and incubated in a saturated atmosphere at 27° C. for 24 h, and then moved to a growth chamber at 27° C. for 5 days, after which disease ratings were made.

[3] = system: Colletotrichum orbiculare; experiment: Test B: cucumber Colletotrichum anthracnose, preventive spray on cucumber seedlings

SMILES	Test D disease control rating (Plasmopara viticola) [%]	Test F disease control rating (Phytophthora infestans) [%]	Test J disease control rating (Septoria tritici; 200 ppm) [%]	Test I disease control rating (fusarium graminearium) [%]	Test K disease control rating ([1]; 40 ppm (*))	Test E disease control rating (Botrytis cinerea; 40 ppm (*))	Test H disease control rating (Septoria nodorum; 40 ppm (*))	Test L disease control rating ([2]; 40 ppm (*))	Test C disease control rating (Sclerotinia sclerotiorum; 200 ppm) [%]	Test A disease control rating (Pythium aphanidermatum) [%]	Test G disease control rating (Rhizoctonia oryzae; 40 ppm (*))	Test B disease control rating ([3]; 40 ppm (*))	Test J disease control rating (Septoria tritici; 40 ppm (*))	Test K disease control rating ([1]; 200 ppm) [%]	Test E disease control rating (Botrytis cinerea; 200 ppm) [%]	Test H disease control rating (Septoria nodorum; 200 ppm) [%]	Test L disease control rating ([2]; 200 ppm) [%]	Test G disease control rating (Rhizoctonia oryzae; 200 ppm) [%]	Test B disease control rating ([3]; 200 ppm) [%]	Test C disease control rating (Sclerotinia sclerotiorum; 40 ppm (*))
CCC(C)Cn1c(-c2c(F)cccc2F)c(Cl)nc(-n2cnc(C#N)c2C#N)c1=O (stereo not drawn) [compound 67]	0	0	24	0	0* %	0* %	0* %	0* %	0	0	0* %	0* %								
CCC(C)Cn1c(-c2c(F)cccc2F)c(Cl)nc(-n2cnc(Cl)c2Cl)c1=O (stereo not drawn) [compound 68]	0	0		0	0* %	0* %	0* %	0* %	0	0	0* %	0* %	26* %							
CCc1nccn1-c1nc(Cl)c(-c2c(F)cccc2F)n(CC(C)CC)c1=O (stereo not drawn) [compound 70]	0	0		0	55* %	0* %	0* %	0* %	0	0	0* %	0* %	83* %							
CCCc1nccn1-c1nc(Cl)c(-c2c(F)cccc2F)n(CC(C)CC)c1=O (stereo not drawn) [compound 71]	0	0		0	68* %	0* %	0* %	0* %	0	0	30* %	0* %	64* %							
CCC(C)Cn1c(-c2c(F)cccc2F)c(Cl)nc(-n2ccnc2C(C)C)c1=O (stereo not drawn) [compound 72]	0	0		0	61* %	0* %	0* %	53* %	0	0	58* %	0* %	74* %							
CC(C)Cn1c(-c2ccc(C(C)(C)C)cc2)c(Cl)nc(-n2cccn2)c1=O [compound 74]	0	0		0	80* %	0* %	0* %	75* %	0	0	0* %	0* %	26* %							
CC(C)Cn1c(-c2ccc(C(C)(C)C)cc2)c(Cl)nc(-n2cncn2)c1=O [compound 75]	0	0		0	0* %	0* %	0* %	0* %	0	0	0* %	0* %	7* %							
CC(C)Cn1c(-c2ccc(C(F)(F)F)cc2)c(Cl)nc(-n2cncn2)c1=O [compound 76]	0	21		0	0* %	0* %	0* %	0* %	0	0	0* %	0* %	0* %							
CC(C)Cn1c(-c2ccc(OC(F)(F)F)cc2)c(Cl)nc(-n2cncn2)c1=O [compound 77]	0	0		0	0* %	0* %	0* %	0* %	0	0	0* %	0* %	0* %							
COC(=O)C(C)=NNc1nc(Cl)c(-c2c(F)cccc2F)n(CC(C)C)c1=O [compound 78]	0	0	91	0					0	0				0	0	0	0	0	0	
Cc1ccc(-c2c(Cl)nc(-n3cccn3)c(=O)n2CC(C)C)c(C)c1 [compound 80]	0	0	100	0						0				100	100	100	94	47	99	0* %
CCC(C)Cn1c(-c2c(F)cccc2F)c(Cl)nc(-n2ccc(C#N)n2)c1=O (stereo not drawn) [compound 81]	0	0		0	68* %	93* %	0* %	0* %	0	0	31* %	0* %	52* %							
CCC(C)Cn1c(-c2c(F)cccc2F)c(Cl)nc(-n2cccc2)c1=O (stereo not drawn) [compound 82]	0	0		0	68* %	0* %	73* %	0* %	0	0	0* %	0* %	5* %							
COc1cc(OC)c(-c2c(Cl)nc(-n3cccn3)c(=O)n2CC(C)C)c(OC)c1 [compound 86]	0	0	0	23					4	0				0	0	0	0	0	0	
CC(C)Cn1c(-c2c(F)cccc2C(F)(F)F)c(Cl)nc(-n2cccn2)c1=O [compound 87]	0	0	74	18					95	0				100	100	100	100	99	100	
CC(C)Cn1c(-c2ccc3c(c2)OCO3)c(Cl)nc(-n2cccn2)c1=O [compound 88]	0	24	100	0					99	0				97	100	99	0	16	52	
